Experimental data from US20100322928A1, “METHODS OF DIAGNOSING, MONITORING TREATMENT AND TREATING SYSTEMIC LUPUS ERYTHEMATOSUS (SLE)” (Yeda Research and Development Co., Ltd., priority 2007, published 2010).
Entries after “also recorded” stand apart in the source; their conditions may differ. Marks after values point to notes of the source that are not given here.

What was measured:
[1] = system: (NZB×NZW)F1 mice with established SLE; test: ELISA for dsDNA-specific antibodies in sera of treated SLE-afflicted mice; format: in vivo; settings: bled after termination of treatment, s.c. once a week for 10 weeks
Protocol: (§1) Treatment of (NZB×NZW)F1 mice with edratide. Female mice aged 6-7 months, with established SLE, were divided into groups (8-10 mice per group) and injected subcutaneously (s.c.) with edratide (25-50 μg) or vehicle only (Captisol®) once a week for 10 weeks. Proteinuria and anti-double stranded DNA (dsDNA) autoantibodies were monitored throughout this period.
Enzyme-linked immunosorbent assay (ELISA) for the detection of dsDNA-specific antibodies. Anti-dsDNA-specific antibodies were determined using lambda phage dsDNA as previously described (5).
(§2) Treatment with edratide ameliorates disease manifestations in (NZB×NZW)F1 mice with established SLE. SLE-afflicted female mice, aged 6-7 months, were treated with 10 weekly s.c. injections of edratide or vehicle (Captisol®) and followed for disease manifestations. One week after the treatment ended the mice were killed and their kidneys were evaluated for immune-complex deposits. The results of a representative experiment are presented in Table 1 below, which summarizes some clinical manifestations of the experimental mice.

[2] = system: (NZB×NZW)F1 mice with established SLE; test: Immunohistology of kidney sections for immune-complex deposits; format: in vivo; settings: graded 0 none, 1 low, 2 moderate, 3 high intensity, s.c. once a week for 10 weeks
Protocol: as §1
Immunohistology. For detection of immune-complex deposits, frozen kidney sections (6 μm) were air-dried and fixed in acetone. Sections were incubated with FITC-conjugated goat anti-mouse IgG (gamma-chain specific; Jackson ImmunoResearch Laboratories, Avondale, Pa.) for 30 minutes and were extensively washed with PBS. The intensity of immune-complex deposits was graded on a […]: 0, no deposits; 1, low-intensity deposits; 2, moderate-intensity deposits; 3, high-intensity deposits.
as §2

[3] = system: spleen cells of SLE-afflicted (NZB×NZW)F1 mice; test: Real-time RT-PCR of spleen cell mRNA from treated mice; format: in vivo; settings: normalized to β-actin
Protocol: Real-time RT-PCR. Messenger RNA (mRNA) was analyzed by quantitative real-time RT-PCR using LightCycler (Roche Diagnostics, Mannheim, Germany). Total RNA was isolated from spleen cells pooled from each treatment group (n=2−4) of (NZB×NZW)F1 mice. To prepare cDNA, RNA was reverse-transcribed using Moloney murine leukemia virus (M-MLV) reverse transcriptase (Promega, Madison, Wis.). The resulting cDNA was subjected to real-time RT-PCR according to the manufacturer's instructions. Briefly, the reaction volume (20 μl) contained 3 mM MgCl2, LightCycler hot start DNA SYBR Green I mix (Roche), specific primer pairs, and 5 μl of cDNA. Conditions for PCR were as follows: 10 minutes at 95° C. followed by 35-50 cycles of 15 seconds at 95° C., 15 seconds at 60° C., and 15 seconds at 72° C. Primer sequences (forward and reverse, respectively) were used as follows:
β-actin levels were used for normalization in calculating the expression levels of all other genes.
Real-time RT-PCR analysis. […] These genes were chosen because they reportedly meet at least one of the following three criteria: involvement in SLE, functioning in lymphocytes, and expression in the kidney.

[4] = system: (NZB×NZW)F1 mice with established SLE; test: Proteinuria, semi-quantitative Albustix test; format: in vivo; settings: at the end of the experiment; s.c. once a week for 10 weeks
Protocol: as §1
Proteinuria. Proteinuria was measured by a standard semi-quantitative test, using an Albustix kit (Bayer Diagnostics, Newbury, UK).
as §2

OX40L = test: Immunostaining of kidney sections for OX40L expression; format: in vivo; settings: 6 edratide-treated mice; intense staining in all 5 vehicle-treated mice
Protocol: Immunohistochemistry of kidney sections. Frozen cryostat sections (6 μm) were air-dried and fixed in acetone. For detection of OX40 ligand (OX40L) expression, sections were incubated for 16 hours at room temperature with anti-OX40L monoclonal antibody (M−20; Santa Cruz Biotechnology, Santa Cruz, Calif.). FITC-conjugated mouse anti-goat IgG (Jackson ImmunoResearch Laboratories, West Grove, Pa.) was then added.
Immunostaining of kidneys of (NZB×NZW)F1 mice for OX40L expression. […] Immunohistological analysis of kidney sections from 5 SLE-afflicted vehicle-treated or 6 edratide-treated mice and 3 disease-free young mice was performed.

[5] = system: splenocytes of SLE-afflicted (NZB×NZW)F1 mice; test: Affymetrix microarray of RNA from splenocytes of treated mice; format: in vivo
Description: Preparation of RNA. Using the RNA/DNA/protein isolation reagent (TRI Reagent®; Molecular Research Center, Cincinnati, Ohio), total RNA was isolated from spleen cells that were pooled (n=2-4 mice) from each experimental group of (NZB×NZW)F1 mice.
Microarray and statistics. RNA samples were hybridized to the mouse genome AffymetrixGeneChip® 430A2 (Affymetrix, Santa Clara, Calif.) array. R packages were used from the Bioconductor project (23). Initially, probe signal summarization, normalization, and background subtraction were performed using Robust Multi-array Averaging (RMA) (24) in affy package with default parameters. Then, the statistical test for differentially expressed genes was performed using Linear Models for Microarray (LIMMA) package (25), which allows for a better variance estimation by calculating the moderated t-statistic using empirical Bayesian techniques. Finally, genes were selected that were statistically significant with P value <0.05 in each biological comparison of interest separately.
Microarray analysis of immunocytes from SLE-afflicted mice. In an attempt to identify gene expression profiles characteristic of SLE and to gain an insight into the modified profile induced by edratide, DNA microarray technology was used on RNA preparations from splenocytes of SLE-afflicted (NZB×NZW)F1 mice treated with edratide or with vehicle only (as described above and in Table 1). […] Three independent in vivo experiments were successfully performed. The RNA obtained in each experiment was hybridized independently on the Affymetrix chips.

SLE-afflicted mice = settings: cited from earlier work
[6] = SLE-afflicted mice, reference 5

Sequence: GYYWSWIRQPPGKGEEWIG (hCDR (Edratide) synthetic peptide) [synthetic peptide based on the CDR1 of the human monoclonal anti-DNA antibody bearing the common idiotype 16/6Id]
- Anti dsDNA antibodies (OD), Dilution 1:10 ([1]; serum dilution 1:10, mean ± spread): 1.46 ± 0.32 OD
- Anti dsDNA antibodies (OD), Dilution 1:250 ([1]; serum dilution 1:250): 0.48 ± 0.21 OD
- Intensity of ICD (immune-complex deposits) [2]: 1.33 ± 0.36
- Real-time RT-PCR expression of Tfpi and S100a8 transcripts ([3]; genes down-regulated by the disease, FIG. 2B): up-regulated after edratide treatment to levels similar to those in the young controls
- Real-time RT-PCR expression of Tnfsf4, Il-5rα, Zbtb20 and Nid1 transcripts ([3]; genes up-regulated by the disease, FIG. 2A): reduced the expression of these genes to levels similar to those seen in the young mice
- Proteinuria [4]: 1.92 ± 0.96 g/L
- OX40L expression in kidney sections (immunostaining) (OX40L): very weak (in 2 mice and 1 mouse, respectively) or undetectable (in 4 and 2 mice, respectively); also recorded: down-regulated
- Fold difference in expression, edratide-treated (hCDR1) vs SLE mice: 1190003K14Rik ([5]; gene 1190003K14Rik, splenocytes): 2.4 fold
- Fold difference in expression, edratide-treated vs SLE mice: 2700022B06Rik ([5]; gene 2700022B06Rik, not statistically significant): −1.4^† fold
- Fold difference in expression, edratide-treated vs SLE mice: 5830484A20Rik ([5]; gene 5830484A20Rik, splenocytes, negative = reduction in signal): −3.0 fold
- Fold difference in expression, edratide-treated vs SLE mice: A130040M12Rik ([5]; gene A130040M12Rik, not statistically significant): 1.3^† fold
- Fold difference in expression, edratide-treated vs SLE mice: Ass1 ([5]; gene Ass1, not statistically significant): −1.2^† fold
- Fold difference in expression, edratide-treated (hCDR1) vs SLE mice: Camp ([5]; gene Camp, splenocytes): 2.8 fold
- Fold difference in expression, edratide-treated vs SLE mice: Cd8b1 ([5]; gene Cd8b1, not statistically significant): 2.0^† fold
- Fold difference in expression, edratide-treated (hCDR1) vs SLE mice: Ctsg ([5]; gene Ctsg, not statistically significant): 1.2^† fold
- Fold difference in expression, edratide-treated vs SLE mice: Cyp11a1 ([5]; gene Cyp11a1, not statistically significant): −1.8^† fold
- Fold difference in expression, edratide-treated vs SLE mice: Dhx9 ([5]; gene Dhx9, not statistically significant): −1.0^† fold
- Fold difference in expression, edratide-treated vs SLE mice: Fzd6 ([5]; gene Fzd6, splenocytes, negative = reduction in signal): −2.9 fold
- Fold difference in expression, edratide-treated vs SLE mice: Gpr132 ([5]; gene Gpr132, not statistically significant): −1.1^† fold
- Fold difference in expression, edratide-treated vs SLE mice: Hdgfrp3 ([5]; gene Hdgfrp3, not statistically significant): −1.7^† fold
- Fold difference in expression, edratide-treated vs SLE mice: IL5Rα ([5]; gene IL5Rα, splenocytes, negative = reduction in signal): −2.0 fold
- Fold difference in expression, edratide-treated vs SLE mice: LOC 545340 ([5]; gene LOC 545340, splenocytes, negative = reduction in signal): −2.7 fold
- Fold difference in expression, edratide-treated (hCDR1) vs SLE mice: Lcn ([5]; gene Lcn (Lipocalin 2), splenocytes): 2.9 fold
- Fold difference in expression, edratide-treated vs SLE mice: Lmo7 ([5]; gene Lmo7, splenocytes, negative = reduction in signal): −2.8 fold
- Fold difference in expression, edratide-treated (hCDR1) vs SLE mice: Ltf ([5]; gene Ltf, splenocytes): 3.2 fold
- Fold difference in expression, edratide-treated (hCDR1) vs SLE mice: Mpo ([5]; gene Mpo, not statistically significant): 1.5^† fold
- Fold difference in expression, edratide-treated (hCDR1) vs SLE mice: Ngp ([5]; gene Ngp, splenocytes): 2.5 fold
- Fold difference in expression, edratide-treated vs SLE mice: Nid1 ([5]; gene Nid1, splenocytes, negative = reduction in signal): −2.4 fold
- Fold difference in expression, edratide-treated vs SLE mice: Pigr ([5]; gene Pigr, not statistically significant): −1.4^† fold
- Fold difference in expression, edratide-treated (hCDR1) vs SLE mice: Prtn3 ([5]; gene Prtn3, not statistically significant): 1.3^† fold
- Fold difference in expression, edratide-treated vs SLE mice: Pstpip2 (second entry) ([5]; gene Pstpip2, entry with SLE fold 2.0, not statistically significant): −1.5^† fold
- Fold difference in expression, edratide-treated vs SLE mice: Pstpip2 (first entry) ([5]; gene Pstpip2, entry with SLE fold 2.2, not statistically significant): −1.9^† fold
- Fold difference in expression, edratide-treated vs SLE mice: Rnf184 ([5]; gene Rnf184, not statistically significant): 1.2^† fold
- Fold difference in expression, edratide-treated (hCDR1) vs SLE mice: S100a8 ([5]; gene S100a8, splenocytes): 2.4 fold
- Fold difference in expression, edratide-treated (hCDR1) vs SLE mice: S100a9 ([5]; gene S100a9, splenocytes): 2.4 fold
- Fold difference in expression, edratide-treated (hCDR1) vs SLE mice: Slfn ([5]; gene Slfn (Schlafen 4), splenocytes): 2.7 fold
- Fold difference in expression, edratide-treated (hCDR1) vs SLE mice: Tfpi ([5]; gene Tfpi, splenocytes): 2.2 fold
- Fold difference in expression, edratide-treated (hCDR1) vs SLE mice: Thbs1 ([5]; gene Thbs1, not statistically significant): 1.5^† fold
- Fold difference in expression, edratide-treated vs SLE mice: Tnfsf4 ([5]; gene Tnfsf4, splenocytes, negative = reduction in signal): −2.5 fold
- Fold difference in expression, edratide-treated vs SLE mice: Zbtb20 ([5]; gene Zbtb20, splenocytes, negative = reduction in signal): −2.2 fold
- Fold difference in expression, edratide-treated vs SLE mice: Unknown gene ([5]; gene title and symbol Unknown, SLE fold 1.9): −1.7 fold
- Number of genes down-regulated 2-fold or more in diseased mice that were up-regulated after treatment ([5]; of the 12 identified genes): 9 (75%) genes
- Number of genes up-regulated 2-fold or more in SLE-afflicted mice that were significantly down-regulated after treatment ([5]; of the 15 genes with an identified product): 9 (60%) genes
- Number of disease-altered genes affected by edratide and restored to levels similar to disease-free controls ([5]; of the 348 genes with altered expression in vehicle-treated diseased mice (22%)): 76 genes
- Kidney disease (SLE-afflicted mice; (NZB×NZW)F1 mice, WO 02/067848): reduced kidney disease
- Immunosuppressive cytokine TGFβ (SLE-afflicted mice; [6]): up-regulated
- Secretion and expression of pathogenic cytokines (IFNγ, IL-1β, TNFα, IL-10) (SLE-afflicted mice; [6]): reduced secretion and expression
